Test results published in patent US5416073A, “Growth hormone-releasing peptides and method of treating animals, therewith” (The Adminstrators of the Tulane Educational Fund, priority 1985, dated 1995).
Square brackets hold non-standard residues; d marks the D form. Peptide text beside a SMILES is read from it.

Test system: Growth Hormone Release
Assay: Peptide effects on growth hormone release, plasma GH by RIA in anesthetized male rats
Format: in vivo, rat
Settings: for % Potency: by comparison to pooled standards GRF(1-29)-NH2, limits in parenthesis
Protocol: In this evaluation, the procedures described by W. A. Murphy et al., Endocrinology 109:491-495 (1980), were employed.
In growth hormone (GH) experiments, male rats (Charles Rivers) were anesthetized with NEMBUTAL® (6 mg per 100 g body weight) which also served to maintain stimulated plasma GH levels. Exactly 30 minutes after the rats were anesthetized, 0.5 mL of saline or the test peptide in saline was administered as a SC bolus. A 1 mL blood sample was drawn from the jugular vein 15 minutes after the injection of the peptide in saline. GH levels were determined using NIADDKD rat GH RIA components.

[1] = dose 1.0 μg/100 g BW SC, 15 min, saline 541 ± 78
[2] = dose 5.0 μg/100 g BW SC, 15 min, saline 541 ± 78

CCCC[C@H](NC(=O)[C@@H](NC(=O)[C@H](CC(=O)O)NC(=O)[C@H](CCC(N)=O)NC(=O)[C@H](CC(C)C)NC(=O)[C@H](CC(C)C)NC(=O)[C@H](CCCCN)NC(=O)[C@H](CCCNC(=N)N)NC(=O)[C@H](C)NC(=O)[C@H](CO)NC(=O)[C@H](CC(C)C)NC(=O)[C@H](CCC(N)=O)NC(=O)CNC(=O)[C@H](CC(C)C)NC(=O)[C@@H](NC(=O)[C@H](CCCCN)NC(=O)[C@H](CCCNC(=N)N)NC(=O)[C@H](Cc1ccc(O)cc1)NC(=O)[C@H](CO)NC(=O)[C@H](CC(N)=O)NC(=O)[C@@H](NC(=O)[C@H](Cc1ccccc1)NC(=O)[C@@H](NC(=O)[C@H](C)NC(=O)[C@H](CC(=O)O)NC(=O)[C@@H](C)NC(=O)[C@@H](N)Cc1ccc(O)cc1)[C@@H](C)CC)[C@@H](C)O)C(C)C)[C@@H](C)CC)C(=O)N[C@@H](CO)C(=O)N[C@@H](CCCNC(=N)N)C(N)=O [D-Ala^2 -Nle^27, D-alanine^2, Norleucine^27-human Pancreatic Growth Hormone-Releasing(1-29)-amide]
Plasma GH (dose 0.1 ug/100 g BW SC, 15 min, saline 278 ± 37): 465 ± 75 ng/mL
Plasma GH (dose 1.0 ug/100 g BW SC, 15 min, saline 278 ± 37): 2287 ± 265 ng/mL

N-acetyl-L-histidine-1,D-alamine-2,L-norleucine-27-human Pancreatic Growth Hormone-Releasing (1-29)-amine [N-AcHis^1, D-Ala^2, Nle^27]
% Potency: 1574 (1112-2226) %
Plasma GH (dose 0.5 (unit not given), SC, 15 min): 1146 ± 143
Plasma GH (dose 1.25 (unit not given), SC, 15 min): 1907 ± 603

D-serine-9-human Pancreatic Growth Hormone-Releasing(1-29)-amine [D-Ser^9]
% Potency: 108 (77-151) %
Plasma GH (dose 16 (unit not given), SC, 15 min): 1804 ± 312
Plasma GH (dose 40 (unit not given), SC, 15 min): 3652 ± 370

D-asparagine^8 -human Pancreatic Growth Hormone-Releasing(1-29)-amide [D-Asn^8]
Plasma GH (dose 4 ug/100 g BW SC, 15 min, saline 366 ± 81): 1296 ± 118 ng/mL
Plasma GH (dose 10 ug/100 g BW SC, 15 min, saline 366 ± 81): 2397 ± 246 ng/mL

CCCC[C@H](NC(=O)[C@@H](NC(=O)[C@H](CC(=O)O)NC(=O)[C@H](CCC(N)=O)NC(=O)[C@H](CC(C)C)NC(=O)[C@H](CC(C)C)NC(=O)[C@H](CCCCN)NC(=O)[C@H](CCCNC(=N)N)NC(=O)[C@H](C)NC(=O)[C@H](CO)NC(=O)[C@H](CC(C)C)NC(=O)[C@H](CCC(N)=O)NC(=O)CNC(=O)[C@H](CC(C)C)NC(=O)[C@@H](NC(=O)[C@H](CCCCN)NC(=O)[C@H](CCCNC(=N)N)NC(=O)[C@H](Cc1ccc(O)cc1)NC(=O)[C@H](CO)NC(=O)[C@@H](CC(N)=O)NC(=O)[C@@H](NC(=O)[C@H](Cc1ccccc1)NC(=O)[C@@H](NC(=O)[C@H](C)NC(=O)[C@@H](CC(=O)O)NC(=O)[C@@H](C)NC(=O)[C@@H](N)Cc1ccc(O)cc1)[C@@H](C)CC)[C@@H](C)O)C(C)C)[C@@H](C)CC)C(=O)N[C@@H](CO)C(=O)N[C@@H](CCCNC(=N)N)C(N)=O [D-Ala^2 -D-Asp^3 -D-Asn^8 -Nle^27, D-alanine^2, D-aspartic acid^3, D-asparagine^8, Norleucine27-human Pancreatic Growth Hormone-Releasing(1-29)-amide]
Plasma GH (dose 0.1 ug/100 g BW SC, 15 min, saline 383 ± 79): 767 ± 146 ng/mL
Plasma GH (dose 1.0 ug/100 g BW SC, 15 min, saline 383 ± 79): 2419 ± 252 ng/mL

N-acetyl-L-histidine-1,D-alanine^2 -human Pancreatic Growth Hormone-Releasing(1-29)-amine [[N-Ac-His^1, D-Ala^2]-hpGRF(1-29)-NH2]
Plasma GH [1]: 1974 ± 274 ng/mL
Plasma GH [2]: 4989 ± 638 ng/mL

CC[C@H](C)[C@H](NC(=O)[C@H](C)NC(=O)[C@H](CC(=O)O)NC(=O)[C@@H](C)NC(=O)[C@@H](N)Cc1ccc(O)cc1)C(=O)N[C@@H](Cc1ccccc1)C(=O)N[C@H](C(=O)N[C@@H](CC(N)=O)C(=O)N[C@@H](CO)C(=O)N[C@@H](Cc1ccc(O)cc1)C(=O)N[C@@H](CCCNC(=N)N)C(=O)N[C@@H](CCCNC(=N)N)C(=O)N[C@H](C(=O)N[C@@H](CC(C)C)C(=O)NCC(=O)N[C@@H](CCC(N)=O)C(=O)N[C@@H](CC(C)C)C(=O)N[C@@H](CO)C(=O)N[C@@H](C)C(=O)N[C@@H](CCCNC(=N)N)C(=O)N[C@@H](CCCNC(=N)N)C(=O)N[C@@H](CC(C)C)C(=O)N[C@@H](CC(C)C)C(=O)N[C@@H](CCC(N)=O)C(=O)N[C@@H](CC(=O)O)C(=O)N[C@H](C(=O)N[C@@H](CCSC)C(=O)N[C@@H](CO)C(=O)N[C@@H](CCCNC(=N)N)C(N)=O)[C@@H](C)CC)C(C)C)[C@@H](C)O [[D-Ala^2, Arg^12, 21]-hpGRF(1-29)-NH2, D-alanine^2, Arginine^12,21-human Growth Hormone-Releasing (1-29)-amide] (H-Y[dA]DAIFTNSYRRVLGQLSARRLLQDIMSR-NH2)
Plasma GH (dose 0.4 μ/100 g BW SC, 15 min, saline 309 ± 20): 755 ± 131 ng/mL
Plasma GH (dose 1.0 μ/100 g BW SC, 15 min, saline 309 ± 20): 1752 ± 289 ng/mL

CC[C@H](C)[C@H](NC(=O)[C@H](C)NC(=O)[C@@H](CC(=O)O)NC(=O)[C@@H](C)NC(=O)[C@@H](Cc1ccc(O)cc1)NC(C)=O)C(=O)N[C@@H](Cc1ccccc1)C(=O)N[C@H](C(=O)N[C@@H](CC(N)=O)C(=O)N[C@@H](CO)C(=O)N[C@@H](Cc1ccc(O)cc1)C(=O)N[C@@H](CCCNC(=N)N)C(=O)N[C@@H](CCCCN)C(=O)N[C@H](C(=O)N[C@@H](CC(C)C)C(=O)NCC(=O)N[C@@H](CCC(N)=O)C(=O)N[C@@H](CC(C)C)C(=O)N[C@@H](CO)C(=O)N[C@@H](C)C(=O)N[C@@H](CCCNC(=N)N)C(=O)N[C@@H](CCCCN)C(=O)N[C@@H](CC(C)C)C(=O)N[C@@H](CC(C)C)C(=O)N[C@@H](CCC(N)=O)C(=O)N[C@@H](CC(=O)O)C(=O)N[C@H](C(=O)N[C@@H](CCSC)C(=O)N[C@@H](CO)C(=O)N[C@@H](CCCNC(=N)N)C(N)=O)[C@@H](C)CC)C(C)C)[C@@H](C)O [N-acetyl-D-tyrosine^1,D-alanine^2,D-aspartic acid^3-human Pancreatic Growth Hormone-Releasing(1-29)-amine]
Plasma GH [1]: 1181 ± 164 ng/mL
Plasma GH [2]: 3594 ± 754 ng/mL

CCCC[C@H](NC(=O)[C@@H](NC(=O)[C@H](CC(=O)O)NC(=O)[C@H](CCC(N)=O)NC(=O)[C@H](CC(C)C)NC(=O)[C@H](CC(C)C)NC(=O)[C@H](CCCCN)NC(=O)[C@H](CCCNC(=N)N)NC(=O)[C@H](C)NC(=O)[C@H](CO)NC(=O)[C@H](CC(C)C)NC(=O)[C@H](CCC(N)=O)NC(=O)CNC(=O)[C@H](CC(C)C)NC(=O)[C@@H](NC(=O)[C@H](CCCCN)NC(=O)[C@H](CCCNC(=N)N)NC(=O)[C@H](Cc1ccc(O)cc1)NC(=O)[C@H](CO)NC(=O)[C@@H](CC(N)=O)NC(=O)[C@@H](NC(=O)[C@H](Cc1ccccc1)NC(=O)[C@@H](NC(=O)[C@H](C)NC(=O)[C@H](CC(=O)O)NC(=O)[C@@H](C)NC(=O)[C@@H](N)Cc1ccc(O)cc1)[C@@H](C)CC)[C@@H](C)O)C(C)C)[C@@H](C)CC)C(=O)N[C@@H](CO)C(=O)N[C@@H](CCCNC(=N)N)C(N)=O [D-Ala^2 -D-Asn^8 -Nle^27, D-alanine^2, D-asparagine^8, Norleucine^27-human Pancreatic Growth Hormone-Releasing(1-29)-amide]
Plasma GH (dose 0.05 ug/100 g BW SC, 15 min, saline 203 ± 39): 407 ± 53 ng/mL
Plasma GH (dose 0.5 ug/100 g BW SC, 15 min, saline 203 ± 39): 1613 ± 138 ng/mL

Ac-YADAIFTNSYRRVLGQLSARRLLQDIMSR-NH2 [[N-Ac-Tyr, Arg^12, 21]-hpGRF(1-29)-NH2, N-acetyl Arginine^12,21-human Pancreatic Growth Hormone-Releasing Factor (1-29)-amide]
Plasma GH (dose 1 μ/100 g BW SC, 15 min, saline 27% ± 54): 796 ± 88 ng/mL
Plasma GH (dose 2.5 μ/100 g BW SC, 15 min, saline 27% ± 54): 1649 ± 167 ng/mL

CC[C@H](C)[C@H](NC(=O)[C@H](C)NC(=O)[C@H](CC(=O)O)NC(=O)[C@@H](C)NC(=O)[C@@H](Cc1ccc(O)cc1)NC(C)=O)C(=O)N[C@@H](Cc1ccccc1)C(=O)N[C@H](C(=O)N[C@@H](CC(N)=O)C(=O)N[C@@H](CO)C(=O)N[C@@H](Cc1ccc(O)cc1)C(=O)N[C@@H](CCCNC(=N)N)C(=O)N[C@@H](CCCCN)C(=O)N[C@H](C(=O)N[C@@H](CC(C)C)C(=O)NCC(=O)N[C@@H](CCC(N)=O)C(=O)N[C@@H](CC(C)C)C(=O)N[C@@H](CO)C(=O)N[C@@H](C)C(=O)N[C@@H](CCCNC(=N)N)C(=O)N[C@@H](CCCCN)C(=O)N[C@@H](CC(C)C)C(=O)N[C@@H](CC(C)C)C(=O)N[C@@H](CCC(N)=O)C(=O)N[C@@H](CC(=O)O)C(=O)N[C@H](C(=O)N[C@@H](CCSC)C(=O)N[C@@H](CO)C(=O)N[C@@H](CCCNC(=N)N)C(N)=O)[C@@H](C)CC)C(C)C)[C@@H](C)O [[N-Ac-D-Tyr^1, D-Ala^2]-hpGRF(1-29)-NH2, N-acetyl-D-tyrosine^1,D-alanine^2-human pancreatic growth hormone-releasing (1-29)-amine]
Plasma GH (dose 0.2 μ/100 g BW SC, 15 min, saline 333 ± 50): 680 ± 100 ng/mL
Plasma GH (dose 0.5 μ/100 g BW SC, blood 15 min after injection, saline 333 ± 50): 499 ± 50 ng/mL
Plasma GH (dose 0.8 μ/100 g BW SC, 15 min, saline 333 ± 50): 2063 ± 251 ng/mL
Plasma GH (dose 3.2 μ/100 g BW SC, 15 min, saline 333 ± 50): 3818 ± 412 ng/mL
